From patent publication US8236937B2, “Methods and compositions for the detection and isolation of ligands” (InDanio Bioscience Inc., priority 2005, dated 2012)

Key:
[1] = system: fish glucocorticoid receptor (GR); details: agonist; cited from earlier work
[2] = target: T1, GAL4-DHR96 (Drosophila hormone receptor 96) fusion protein (Drosophila melanogaster, UniProt Q24143); experiment: Ligand trap GFP reporter screen in transgenic Drosophila embryos (GAL4-DHR96, UAS-GFP); format: in vivo; details: 10^−5 molar vs control media, FIG. 7 panel A
T1 construct: expressed in transfected cells; host or cells: transgenic Drosophila embryos carrying GAL4-DHR96 and a UAS-GFP reporter
T1 sequence (Q24143 483-723 limits assumed): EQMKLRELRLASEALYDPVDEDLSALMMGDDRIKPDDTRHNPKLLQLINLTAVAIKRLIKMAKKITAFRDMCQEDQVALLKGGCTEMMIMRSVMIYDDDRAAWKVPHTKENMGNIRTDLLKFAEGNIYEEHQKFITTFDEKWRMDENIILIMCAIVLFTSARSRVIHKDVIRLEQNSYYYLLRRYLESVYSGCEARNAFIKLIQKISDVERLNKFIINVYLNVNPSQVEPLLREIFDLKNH
Source text: CITCO is a component of a small molecule library used to screen for novel DHR96 ligands.

SMILES | Transcriptional activity of fish GR in the presence of ligand [1] | GFP reporter activation / ligand activity at DHR96 [2]
C[C@]12CCC(=O)C=C1CC[C@@H]1[C@@H]2[C@@H](O)C[C@@]2(C)[C@H]1CC[C@]2(O)C(=O)CO [cortisol] | able to induce transcriptional activity | –
Clc1ccc(-c2nc3sccn3c2/C=N/OCc2ccc(Cl)c(Cl)c2)cc1 [CITCO] | – | first example of a DHR96-specific ligand
